Data on eight molecules can be found in patent US12296027B2, “Molecular renal probes for detecting acute kidney injury” (Nanyang Technological University, priority 2019, dated 2025).

Data set [1] is described as follows: Body weight of drug-treated mice. The data set is classed as in vivo. The conditions noted are these: BALB/c mice, single i.v. dose. The procedure: Mice were randomly selected and treated with cisplatin (5 mg kg^−1, 10 mg kg^−1 or 20 mg kg^−1 body weight, i.p. injection), gentamicin (100 mg kg^−1 day^−1, i.p. injection) or diatrizoate (1000 mg kg^−1 body weight, i.v injection, water deprivation for 24 h before treatment). The control groups were treated with saline (0.2 ml) or NAC (400 mg kg^−1 body weight, i.v injection) 30 min prior to cisplatin administration^50. Body weights of all the mice were recorded during treatment. After drug administration, the weight of mice and signs of discomfort were monitored on a daily basis during the entire experiments (FIG. 46). Imaging, blood and urine sampling were conducted at different timepoints post-treatment of drug. At the end, mice were euthanized and major organs were placed into 4% paraformaldehyde for histological examination.
For the doxorubicin model, dose-finding studies were first carried out to define an optimal dose of 10 mg kg^−1 body weight of doxorubicin. […] The corresponding MRP (40 mg kg^−1) was systematically injected through the tail vein at t=0, 2 d, 5 d, and 8 d post-treatment of DOX, and fluorescence images were acquired. […] Fluorescence images of living mice and urine samples were acquired for 0.1 s with excitation at 675±20 nm, and emission at 720±20 nm. Fluorescence images were analysed by ROI analysis using the Living Image 4.0 Software.

The conditions of data set [2]: cited from earlier work.
For data set [3] the following is noted: in DMSO; cited from earlier work.
Data set [4] can be described thus: Determination of GFR by FITC-inulin method in drug-treated mice. Type of data set: in vivo. How it is done:
FITC-inulin (150 mg) was dissolved in 0.9% NaCl (3 ml) at 75° C. and dialysed in 0.9% NaCl (1000 ml) at room temperature for 24 h. Dialysed FITC-inulin (3.74 μl g^−1 […]), or at t=24, 36, 48, 96, or 144 h post-treatment of gentamicin (100 mg kg^−1 day^−1 body weight), or at t=2, 8, 16, 24, or 48 h post-treatment of diatrizoate (1000 mg kg^−1 body weight), or saline (0.2 ml) treated mice. Blood (approximately 20 μl) was collected via saphenous vein at 3, 7, 10, 15, 35, 55, and 75 min post-injection of FITC-inulin, and then centrifuged for 20 min at 3500 r.p.m. Serum sample (10 μl) was diluted with HEPES buffer (40 μl, 500 mM, pH 7.4) and fluorescence was measured using spectramax with excitation at 485 nm and emission at 538 nm. Serum fluorescence data were presented as a two-component exponential decay curve using nonlinear regression (3 mice were analysed for each sample). GFR was calculated according to the equation (Z. Qi, et al., Am. J. Physiol. Renal. Physiol. 2004, 286, F590-596): […], where I is the amount of FITC-inulin delivered by the bolus injection, A and B are the y-intercept values of the two decay rates, and α and β are the decay constants for the distribution and elimination phases, respectively.
FITC-inulin (150 mg) was dissolved in 0.9% NaCl (3 ml), heated at 75° C. and dialysed in 0.9% NaCl (1000 ml) at room temperature for 24 h. Dialysed FITC-inulin (3.74 μl g^−1 body weight) was i.v. injected into living mice at =2, 8, 16, 24, or 48 h post-treatment of diatrizoate (1 g kg^−1 body weight), or PBS (0.2 ml) treated mice, or NAC/DTZ co-treated mice. Blood (approximately 20 μl) was collected via tail vein at 3, 7, 10, 15, 35, 55, and 75 min post-injection of FITC-inulin, and then centrifuged for 15 min at 4500 r.p.m. Serum sample (10 μl) was diluted with PBS buffer (40 μl, 10 mM, pH 7.4) and fluorescence was measured using spectramax with excitation at 485 nm and emission at 538 nm. Serum fluorescence data were presented as a two-component exponential decay curve using nonlinear regression (3 mice were analysed for each sample). GFR was calculated according to the equation: […], where 1 is the amount of FITC-inulin delivered by the bolus injection, A and B are the y-intercept values of the two decay rates, and α and β are the decay constants for the distribution and elimination phases, respectively.

The nature of data set [5]: Commercial assays of serum and urinary kidney injury biomarkers in drug-treated mice. Type of data set: in vivo. How it is done: Urine was collected using metabolic cages from drug-treated mice at different timepoints post-treatment of drug. The collected urine samples were centrifuged at 4500 r.p.m. for 8 min and filtered by 0.22 μm syringe filter. MRPs1-3 solutions (30 μM) in PBS buffer (10 mM, pH 7.4) were incubated with the urine (100 μl) at 37° C., followed by fluorescence measurements on fluorescence spectrophotometer after 2 h incubation (9 mice were analysed for each sample). Urinary TFF3, osteopontin, NGAL, β2-Microglobulin, KIM-1, clusterin levels were quantified using ELISA kits according to the manufacturer's protocol (6 mice were analysed for each sample).
Blood was collected from the tail vein in living NCr nude mice under isoflurane anesthesia at t=8, 12, 16, 24, or 48 h post-treatment of cisplatin (20 mg kg^−1 body weight), or at t=24, 48, 72, 96, or 144 h post-treatment of gentamicin (100 mg kg^−1 day^−1 body weight), or at t=2, 8, 16, 24, or 48 h post-treatment of diatrizoate (1000 mg kg^−1 body weight), or saline (0.2 ml) treated mice. The collected blood samples were centrifuged for 20 min at 3500 r.p.m. Serum creatinine, BUN and cystatin C were determined using commercial kits according to the manufacturer's protocol (5 mice were analysed for each sample).
Blood was collected from the tail vein in living mice under isoflurane anesthesia at t=2, 8, 16, 24 or 48 h post-treatment of diatrizoate (1 g kg^−1 body weight), or PBS treated mice, or NAC/DTZ co-treated mice. The collected blood samples were centrifuged for 15 min at 4500 r.p.m. Serum creatinine and BUN were determined using commercial kits according to the manufacturer's protocol (3 mice were analysed for each sample).

Where [6] appears, read: at first significant timepoint, initial studies.
Where [7] appears, read: at first significant timepoint, subsequent studies.

Where two headings read alike, the source gives them in different places.

For `COc1cccc2c1C(=O)c1c(O)c3c(c(O)c1C2=O)C[C@@](O)(C(=O)CO)C[C@@H]3O[C@H]1C[C@H](N)[C@H](O)[C@H](C)O1` [DOX, doxorubicin], in data set [1], the “mean body weight gain by day 16” value came out at 3% and the “mean body weight loss by day 8” value is “approximately 6%”.
Regarding `CNC(=O)CN(CCN(CCN(CC(=O)[O-])CC(=O)NC)CC(=O)[O-])CC(=O)[O-].[Gd+3]` [Gd-DTPA-BMA], the Renal clearance efficiency in data set [2] (in 24 h, S.D Rats) is given as 95% in 24 h.
For the molecule `CC1(C)C(/C=C/C=C/C=C/C=C2\N(CCCCS(=O)(=O)[O-])c3ccc4ccccc4c3C2(C)C)=[N+](CCCCS(=O)(=O)[O-])c2ccc3ccccc3c21.[Na+]` [ICG], in data set [3], the “fluorescence quantum yield (ϕ) of standard” value was 13%.
Consider `CC(=O)N(CC(O)CO)c1c(I)c(C(=O)NCC(O)CO)c(I)c(C(=O)NCC(O)CO)c1I` (stereo not drawn) [Iohexol], for which the Renal clearance efficiency in data set [2] (in 4 h, S.D rats) is 59.7% in 4 h.
`CNC(=O)c1c(I)c(NC(C)=O)c(I)c(C(=O)O)c1I` [Iothalamate]: the Renal clearance efficiency in data set [2] (in 24 h, S.D rat) is recorded as 93.5% ID in 24 h.
`N.N.[Cl][Pt][Cl]` [cisplatin]: the “decrease in GFR at timepoint of sCr/BUN increase” value (“decrease … of sCr/BUN increase” below) in data set [4] (mouse, in vivo) is given as about 50%. Moreover, in data set [5] (mouse, in vivo), the “time of first statistically significant change of urinary NGAL and trefoil factor-3” value is 48 h; the “time of first statistically significant increase of urinary KIM-1 and clusterin” value is given as 24 h; the “time of increase of serum Cystatin C” value stood at 48 h; the “time of statistically significant change of urinary osteopontin” value is 72 h. Besides, in data set [5] (mouse, in vivo), the “time of statistically significant change of urinary β2-microglobulin” value is recorded as 72 h; the “time of statistically significant increase of sCr and BUN after treatment” value stood at 72 h; the “urinary KIM-1 increase” value was 1.9 fold; the “urinary NGAL change” value is recorded as 2.7 fold. In addition, in data set [5] (mouse, in vivo), the “urinary NGAL change, alternative value” was determined as 2.72 fold; the urinary clusterin increase was 4.1 fold; the urinary osteopontin change worked out at 2.3 fold; the “urinary trefoil factor-3 change” value is reported as 0.4 fold. Also, the “urinary β2-microglobulin change” value in data set [5] (mouse, in vivo) is reported as 3.9 fold.
As to `CC(=O)Nc1c(I)c(NC(C)=O)c(I)c(C(=O)O)c1I` [diatrizoate], in data set [4] (mouse, in vivo), the “decrease in GFR at 24 h post-treatment” value is about 40%, the “decrease in GFR at 48 h post-treatment” value is about 60% and the “decrease … of sCr/BUN increase” value is about 50%. In addition, in data set [5] (mouse, in vivo), the “BUN relative to control groups” value turned out to be 1.8 fold; the “sCr relative to control groups” value worked out at 1.7 fold; the “time of first statistically significant change of urinary NGAL and trefoil factor-3” value turned out to be 24 h; the “time of first statistically significant increase of urinary KIM-1 and clusterin” value was found to be 24 h. Also, in data set [5] (mouse, in vivo), the “time of statistically significant change of urinary osteopontin” value is given as 24 h; the “time of statistically significant change of urinary β2-microglobulin” value came out at 48 h; the “time of statistically significant increase of sCr and BUN after treatment” value was found to be 24 h; the “urinary KIM-1 increase” value is listed as 3.7 fold. Besides, in data set [5] (mouse, in vivo), the “urinary NGAL change” value turned out to be 2.3 fold; the “urinary NGAL change, alternative value” is listed as 2.05 fold; the urinary clusterin increase was determined as 3.0 fold; the urinary osteopontin change is 2.3 fold. In data set [5] (mouse, in vivo), the “urinary trefoil factor-3 change” value amounted to 0.5 fold and the “urinary β2-microglobulin change” value came out at 3.6 fold.
With gentamicin, the “decrease … of sCr/BUN increase” value in data set [4] (72 h cisplatin, 144 h gentamicin, 24 h diatrizoate) is on record as about 50%. In data set [5] (at first significant timepoint), the “urinary KIM-1 increase” value is 2.2 fold; the “urinary NGAL change” value worked out at 2.0 fold; the “urinary NGAL change, alternative value” came to 1.98 fold; the urinary clusterin increase is 3.5 fold. Further, in data set [5] (at first significant timepoint), the urinary osteopontin change was 2.3 fold, the “urinary trefoil factor-3 change” value was 0.3 fold and the “urinary β2-microglobulin change” value is given as 3.2 fold. Besides, in data set [5] (setting [6]), the BUN increase came to 2.23 fold and the sCr increase was found to be 2.82 fold. In data set [5] (setting [7]), this molecule returned a BUN increase of 2.4 fold and a sCr increase of 2.9 fold. In addition, in data set [5] (mouse, in vivo), the “time of first statistically significant change of urinary NGAL and trefoil factor-3” value was found to be 96 h; the “time of first statistically significant increase of urinary KIM-1 and clusterin” value worked out at 72 h; the “time of statistically significant change of urinary osteopontin” value is 144 h; the “time of statistically significant change of urinary β2-microglobulin” value was 144 h. Moreover, in data set [5] (nephrotoxic dose, mice), the “time of statistically significant increase of sCr and BUN after treatment” value worked out at 144 h.
